Laboratory results as given in patent US9809551B2, “Solid forms of Ivacaftor and processes for the preparation thereof” (Apotex Inc., priority 2013, dated 2017).

Test: Storage stability of Ivacaftor APO-I polymorph at 25±2° C. / 60%±5% RH
Type: physicochemical
Description: Ivacaftor APO-I polymorph samples were packed in an inner antistatic polyethylene bag sealed with a cable tie encased within a heat sealed composite aluminum out bag under nitrogen within a HDPE drum. The samples were then tested for stability after storing at 25±2° C. with 60%±5% relative humidity (RH). Impurities, drug concentrations, polymorph stability and other parameters were measured at intervals during the storage.

CC(C)(C)c1cc(C(C)(C)C)c(NC(=O)c2c[nH]c3ccccc3c2=O)cc1O [Ivacaftor APO-I polymorph, N-(2,4-di-tert-butyl-5-hydroxyphenyl)-1,4-dihydro-4-oxoquinoline-3-carboxamide]
Assay (by HPLC) (12 months): 99.8% | Description (12 months): Off white | Assay (by HPLC) (Initial): 99.1% | Description (Initial): Off white | XRPD (polymorph stability) (Initial): APO-I
